Data from US20240294541A1, “COMPOUNDS CONSTITUTING C20-MODIFIED SALINOMYCIN DERIVATIVES, A METHOD FOR OBTAINING THE SAME, A COMPOSITION CONTAINING THE SAME AND A USE OF SAID COMPOUNDS” (FILECLO SPOLKA Z OGRANICZONA ODPOWIEDZIALNOSCIA, priority 2021, published 2024).

Tests used:
Assay type in all cases: cell-based
[1] = system: KG-1 (human acute myeloid leukaemia); test: In vitro cytotoxicity, MTT assay, KG-1; settings: for IC50: Homo sapiens, 72 h with compound, MTT, n/a = non-active compound; for KG-1 SI: selectivity coefficient vs normal BALB/3T3 cells
[2] = system: A2780 (human ovarian cancer); test: In vitro cytotoxicity, SRB assay, A2780; settings: for IC50: Homo sapiens, A2780, 72 h with compound, SRB, n/a = non-active compound, read-out: A2780 IC50; for A2780 SI: selectivity coefficient vs normal BALB/3T3 cells
Hs294T (human melanoma) = test: cells; settings: for IC50: Homo sapiens, Hs 294T, 72 h with compound, SRB, n/a = non-active compound, read-out: Hs294T IC50; for Hs294T SI: selectivity coefficient vs normal BALB/3T3 cells
A375 (human melanoma) = test: In vitro cytotoxicity, SRB assay, A375; settings: for IC50: Homo sapiens, A-375, 72 h with compound, SRB, n/a = non-active compound, read-out: A375 IC50; for A375 SI: selectivity coefficient vs normal BALB/3T3 cells
[3] = system: SNU-16 (human gastric cancer); test: cells; settings: for IC50: Homo sapiens, SNU-16, 72 h with compound, MTT, n/a = non-active compound, read-out: SNU-16 IC50; for SNU-16 SI: selectivity coefficient vs normal BALB/3T3 cells
[4] = system: PFSK-1 (malignant primitive neuroectodermal tumour); test: In vitro cytotoxicity, SRB assay, PFSK-1; settings: for IC50: Homo sapiens, PFSK-1, 72 h with compound, SRB, n/a = non-active compound, read-out: PFSK-1 IC50; for PFSK-1 SI: selectivity coefficient vs normal BALB/3T3 cells
[5] = system: MIA PaCa-2 (human pancreatic cancer); test: cells; settings: for IC50: Homo sapiens, MIA PaCa-2, 72 h with compound, SRB, n/a = non-active compound, read-out: MIA PaCa-2 IC50; for MIA PaCa-2 SI: selectivity coefficient vs normal BALB/3T3 cells
[6] = system: PLC/PRF/5 (human liver cancer); test: cells; settings: for IC50: Homo sapiens, PLC-PRF-5, 72 h with compound, SRB, n/a = non-active compound, read-out: PLC/PRF/5 IC50; for PLC/PRF/5 SI: selectivity coefficient vs normal BALB/3T3 cells
[7] = system: NCI-H23 (human lung cancer); test: In vitro cytotoxicity, SRB assay, NCI-H23; settings: for IC50: Homo sapiens, NCI-H23, 72 h with compound, SRB, n/a = non-active compound, read-out: NCI-H23 IC50; for NCI-H23 SI: selectivity coefficient vs normal BALB/3T3 cells
[8] = system: BALB/3T3 (normal mouse fibroblasts); test: In vitro cytotoxicity, SRB assay, normal BALB/3T3 fibroblasts; settings: Mus musculus, BALB/3T3; normal cells; 72 h with compound, SRB; n/a = non-active compound; read-out: BALB/3T3 IC50
[9] = system: A2780Cis (cisplatin-resistant human ovarian cancer); test: In vitro cytotoxicity, SRB assay, A2780Cis; settings: for IC50: Homo sapiens, A2780cis, 72 h, read-out: A2780Cis IC50 (nM)

Row | Structure (SMILES) | IC50 [1] | KG-1 SI [1] | IC50 [2] | A2780 SI [2] | IC50 (Hs294T (human melanoma)) | Hs294T SI (Hs294T (human melanoma)) | IC50 (A375 (human melanoma)) | A375 SI (A375 (human melanoma)) | IC50 [3] | SNU-16 SI [3] | IC50 [4] | PFSK-1 SI [4] | IC50 [5] | MIA PaCa-2 SI [5] | IC50 [6] | PLC/PRF/5 SI [6] | IC50 [7] | NCI-H23 SI [7] | IC50 [8] | A2780Cis RI [9] | also measured
1 | CC[C@@H](C(=O)[C@@H](C)[C@@H](O)[C@H](C)[C@@H]1O[C@@H]([C@@H](CC)C(=O)O)CC[C@@H]1C)[C@H]1O[C@]2(C=C[C@@H](NC(=O)NCc3ccccc3)[C@]3(CC[C@@](C)([C@H]4CC[C@](O)(CC)[C@H](C)O4)O3)O2)[C@H](C)C[C@@H]1C [FLC-00337-1] | 122 nM | 1.0 | 3.1 nM | 39.2 | 549 nM | 0.2 | 296 nM | 0.4 | 21.4 nM | 5.7 | 19.4 nM | 6.3 | 56 nM | 2.2 | 41.4 nM | 2.9 | 445 nM | 0.3 | 122 nM | 0.6 | A2780Cis SI [9]: 61.5; IC50 [9]: 1.98 nM
2 | C=CCNC(=O)N[C@@H]1C=C[C@]2(O[C@H]([C@@H](CC)C(=O)[C@@H](C)[C@@H](O)[C@H](C)[C@@H]3O[C@@H]([C@@H](CC)C(=O)O)CC[C@@H]3C)[C@@H](C)C[C@H]2C)O[C@@]12CC[C@@](C)([C@H]1CC[C@](O)(CC)[C@H](C)O1)O2 [FLC-00353-1] | 34.3 nM | 6.6 | 1.14 nM | 199.8 | 612 nM | 0.4 | 107 nM | 2.1 | 88.6 nM | 2.6 | 13.4 nM | 16.9 | 28.9 nM | 7.8 | 31.5 nM | 7.2 | 410 nM | 0.6 | 227 nM | 1.1 | A2780Cis SI [9]: 180.6; IC50 [9]: 1.26 nM
3 | CC[C@@H](C(=O)[C@@H](C)[C@@H](O)[C@H](C)[C@@H]1O[C@@H]([C@@H](CC)C(=O)O)CC[C@@H]1C)[C@H]1O[C@]2(C=C[C@@H](NC(=O)Nc3ccc(OC)cc3)[C@]3(CC[C@@](C)([C@H]4CC[C@](O)(CC)[C@H](C)O4)O3)O2)[C@H](C)C[C@@H]1C [FLC-00371-1] | 22.1 nM | 4.2 | 2.35 nM | 39.3 | 67.7 nM | 1.4 | 43.3 nM | 2.1 | 14.8 nM | 6.2 | 5.13 nM | 18.0 | 31.3 nM | 3.0 | 12.8 nM | 7.2 | 4.54 nM | 20.4 | 92.3 nM | 0.1 | A2780Cis SI [9]: 413.4; IC50 [9]: 0.22 nM
4 | CC[C@@H](C(=O)[C@@H](C)[C@@H](O)[C@H](C)[C@@H]1O[C@@H]([C@@H](CC)C(=O)O)CC[C@@H]1C)[C@H]1O[C@]2(C=C[C@@H](NC(=O)NCCCl)[C@]3(CC[C@@](C)([C@H]4CC[C@](O)(CC)[C@H](C)O4)O3)O2)[C@H](C)C[C@@H]1C [FLC-00338-1 Na] | 222 nM | 0.7 | 5.4 nM | 30.4 | 1870 nM | 0.1 | 354 nM | 0.5 | 39.2 nM | 4.2 | 53.1 nM | 3.1 | 58.6 nM | 2.8 | 61.6 nM | 2.7 | 620 nM | 0.3 | 164 nM | 1.9 | A2780Cis SI [9]: 16.2; IC50 [9]: 10.1 nM
5 | CC[C@@H](C(=O)[C@@H](C)[C@@H](O)[C@H](C)[C@@H]1O[C@@H]([C@@H](CC)C(=O)O)CC[C@@H]1C)[C@H]1O[C@]2(C=C[C@@H](NC(=S)Nc3ccc(Cl)cc3)[C@]3(CC[C@@](C)([C@H]4CC[C@](O)(CC)[C@H](C)O4)O3)O2)[C@H](C)C[C@@H]1C [FLC-00378-1] | 19.1 nM | 0.5 | 0.55 nM | 18.3 | 29.4 nM | 0.3 | 36.6 nM | 0.3 | 3.21 nM | 3.2 | 3.28 nM | 3.1 | 18.4 nM | 0.5 | 2.58 nM | 3.9 | 4.12 nM | 2.5 | 10.1 nM | 0.3 | A2780Cis SI [9]: 57.0; IC50 [9]: 0.18 nM
6 | CC[C@@H](C(=O)[C@@H](C)[C@@H](O)[C@H](C)[C@@H]1O[C@@H]([C@@H](CC)C(=O)O)CC[C@@H]1C)[C@H]1O[C@]2(C=C[C@@H](NC(=S)NCC(C)C)[C@]3(CC[C@@](C)([C@H]4CC[C@](O)(CC)[C@H](C)O4)O3)O2)[C@H](C)C[C@@H]1C [FLC-00369-1] | 11.7 nM | 7.1 | 5.08 nM | 16.2 | 106 nM | 0.8 | 49.6 nM | 1.7 | 16 nM | 5.1 | 5.84 nM | 14.1 | 44.7 nM | 1.8 | 12.4 nM | 6.6 | 5.98 nM | 13.8 | 82.3 nM | 0.4 | A2780Cis SI [9]: 44.8; IC50 [9]: 1.84 nM
7 | CC[C@@H](C(=O)[C@@H](C)[C@@H](O)[C@H](C)[C@@H]1O[C@@H]([C@@H](CC)C(=O)O)CC[C@@H]1C)[C@H]1O[C@]2(C=C[C@@H](NC(=O)NC3CCCCC3)[C@]3(CC[C@@](C)([C@H]4CC[C@](O)(CC)[C@H](C)O4)O3)O2)[C@H](C)C[C@@H]1C [FLC-00384-1] | 19.7 nM | 5.3 | 4.04 nM | 25.9 | 141 nM | 0.7 | 120 nM | 0.9 | 21.1 nM | 5.0 | 10 nM | 10.5 | 62.6 nM | 1.7 | 28.2 nM | 3.7 | 27.7 nM | 3.8 | 105 nM | 0.3 | A2780Cis SI [9]: 80.0; IC50 [9]: 1.31 nM
8 | CCCCCCCNC(=O)N[C@@H]1C=C[C@]2(O[C@H]([C@@H](CC)C(=O)[C@@H](C)[C@@H](O)[C@H](C)[C@@H]3O[C@@H]([C@@H](CC)C(=O)O)CC[C@@H]3C)[C@@H](C)C[C@H]2C)O[C@@]12CC[C@@](C)([C@H]1CC[C@](O)(CC)[C@H](C)O1)O2 [FLC-00350-1] | 35.9 nM | 2.9 | 2.46 nM | 42.0 | 419 nM | 0.2 | 251 nM | 0.4 | 18.2 nM | 5.7 | 7.25 nM | 14.2 | 37.4 nM | 2.8 | 23 nM | 4.5 | 101 nM | 1.0 | 103 nM | 0.9 | A2780Cis SI [9]: 44.9; IC50 [9]: 2.3 nM
